Laboratory results: a melting point compilation (Tetko et al.; mined from patent text by program, amines drawn as free bases though some values may be those of a salt)

| melting point [°C] | Compound |
| --- | --- |
| 165 to 166 | COc1ccc(C2=CC(=Nc3c(C)cc(C)cc3C)N(C)CN2)cc1OC |
| 220 to 222 | O=C(O)c1cn(Cc2cnsn2)c2c(F)c(F)c(F)cc2c1=O |
| 83 to 84 | Cc1nnc(-c2ccc3occ(-c4ccccc4C)c3c2)o1 |
| 111 to 113 | Cc1ccc(-c2nnc(-c3ccco3)s2)cc1 |
| 66 to 67 | Cc1cc(CCCCCCCc2ccc(C3=NCCO3)cc2)on1 |
| 150 | CN(C)c1ccc(C#N)nn1 |
| 159 to 160 | O=C(NCCO)c1cccc(-c2ccc(F)c3cc(Cc4cccc(C(F)(F)F)c4)oc23)c1 |
| 198 to 200 | COC(=O)Cn1c(-c2ccccc2Cl)nc2cccnc21 |
| 142 to 144 | CCCc1nc2c(N)nc3cc(OCCCN4CCCS4(=O)=O)ccc3c2n1CC(C)C |
| 139 to 140 | Cc1cc(C)c2c(c1C)OC(C)(CC(=O)O)C2 (configuration not stated) |
| 148 to 149 | Cc1c(SCCCSCc2ccncc2)ccnc1CNc1ncncc1Cl |
| 93 to 94 | CC1(C)C2CCC(C2)C1(C)F (configuration not stated) |
| 128 to 131 | Cc1ccc(C(=O)c2cccc3c2CCC3C(=O)O)cc1 (configuration not stated) |
| 74 to 77 | CCOC1CCC2C3CCc4cc(OC)ccc4C3CCC12CC (configuration not stated) |
| 165 to 167 | O=C(CCCCCl)c1c[nH]c2ccccc12 |
| 260 to 261 | Cc1cc(-c2nc3ccccc3c(=O)[nH]2)cc(C)c1OCCO |
| 75 to 77 | COc1cc(C(C)=O)ccc1-c1ccc(F)cc1 |
| 180 to 182 | CC(=O)Nc1c(Cl)ccc(C)c1Cl |
| 240 to 242 | COc1ccc(OC)c2c(Nc3ccc(C)c(O)c3)c(C#N)cnc12 |
| 139 to 140 | O=C(C=Cc1ccc(C(F)(F)F)cc1)N1CCCCC1CO (configuration not stated) |
| 135 to 136 | O=C(O)c1ccc(CCCc2ccccc2Cc2ccccc2)cc1 |

| melting point [°C] | Compound |
| --- | --- |
| 124 to 130 | C#CCNC(=NCCSCc1ccccn1)NC#N |
| 169 to 173 | Cc1ccc(NC(=O)Nc2ccc(-c3c(Cc4ccccc4)sc4ncnc(N)c34)cc2)cc1 |
| 152 | CC(C)(C)OCC1CN(c2ccc3cc(OCc4ccccc4)ccc3c2)C(=O)O1 (configuration not stated) |
| 328 to 334 | CCNC(=O)Nc1nc2cc(-c3cnc(N(C)C)nc3)cc(C(=O)NCC)n2n1 |
| 121 to 122 | Cc1ncccc1Cn1nnnc1-c1cccc(Cl)c1Cl |
| 105 to 106 | COc1cc(C2CCCCC2)ccc1C(O)CCC(=O)O (configuration not stated) |
| 132 to 134 | COc1cc2c(cc1OC)CC(=O)N(CCCI)C=C2 |
| 77 to 80 | CC(C)(NC(=O)Oc1ccc([N+](=O)[O-])cc1)C(F)(F)F |
| 237 to 239 | CCOC(=O)c1cn(CCO)c2cc(-n3cccc3)c(F)cc2c1=O |
| 89.6 to 93 | CS(=O)(=O)N1CCC[C@@H]1[C@H](CS(=O)(=O)c1ccc(Oc2ccc(OC(F)(F)F)cc2)cc1)N(O)C=O |
| 249 to 250 | CN(C(=N)Nc1cccc2ccccc12)c1cccc2ccccc12 |
| 178 to 181 | CC(C)Oc1ccccc1N1CCN(Cc2cccc(CC3NC(=O)NC3=O)c2)CC1 (configuration not stated) |
| 190 to 194 | CCOCc1nc2c(N)nc3cc(OCCCCCCNS(C)(=O)=O)ccc3c2n1CC(C)(C)NC(=O)NC(C)C |
| 37 to 38 | CCCCCCCCCCC(=O)OCCCCCC(=O)CC(=O)c1ccccc1 |
| 200 to 201 | c1ccc(NCc2nccc(-c3ccc(-c4ccc(N(c5ccccc5)c5ccccc5)cc4)cc3)n2)cc1 |
| 211 | CCCC1=C(C(=O)OCC)C(c2ccccc2C#N)c2c[nH]nc2N1 (configuration not stated) |
| 142 to 144 | CON(C)Cc1nc2cnc3ccccc3c2n1CC1CCOCC1 |
| 65 | CC(=O)OCC1CCCn2c(cc3ccccc32)C1 (configuration not stated) |
| 134 to 135 | CSc1cccc(NC(C)=N)c1 |
| 132 to 134 | CC(=O)Nc1ccc(OCCN2CCc3ccc([N+](=O)[O-])cc3CC2)cc1C |

| Compound | melting point [°C] |
| --- | --- |
| CN1CC=C(c2c[nH]c3ccc(Oc4ccccc4)cc23)CC1 | 135 to 137 |
